Literature values in US5360612A, “Pharmaceutical compositions containing triazole derivatives for rectal administration” (Pfizer Inc., priority 1992, dated 1994).

Settings: in vivo

## CN[C@@H](C)[C@H](O)c1ccccc1 [ephedrine]
  bioavailability from suppository fatty bases: do not show good bioavailability
